The results in this text go back to US8324176B2, “Pyrazole derivatives, medicinal composition containing the same, medicinal use thereof, and intermediate for production thereof” (Kissei Pharmaceutical Co., Ltd., priority 2002, dated 2012).

This assay has as its target T1, human SGLT1 (Homo sapiens, UniProt P13866).
T1 construct: expressed in transfected cells
T1 sequence (P13866 1-664): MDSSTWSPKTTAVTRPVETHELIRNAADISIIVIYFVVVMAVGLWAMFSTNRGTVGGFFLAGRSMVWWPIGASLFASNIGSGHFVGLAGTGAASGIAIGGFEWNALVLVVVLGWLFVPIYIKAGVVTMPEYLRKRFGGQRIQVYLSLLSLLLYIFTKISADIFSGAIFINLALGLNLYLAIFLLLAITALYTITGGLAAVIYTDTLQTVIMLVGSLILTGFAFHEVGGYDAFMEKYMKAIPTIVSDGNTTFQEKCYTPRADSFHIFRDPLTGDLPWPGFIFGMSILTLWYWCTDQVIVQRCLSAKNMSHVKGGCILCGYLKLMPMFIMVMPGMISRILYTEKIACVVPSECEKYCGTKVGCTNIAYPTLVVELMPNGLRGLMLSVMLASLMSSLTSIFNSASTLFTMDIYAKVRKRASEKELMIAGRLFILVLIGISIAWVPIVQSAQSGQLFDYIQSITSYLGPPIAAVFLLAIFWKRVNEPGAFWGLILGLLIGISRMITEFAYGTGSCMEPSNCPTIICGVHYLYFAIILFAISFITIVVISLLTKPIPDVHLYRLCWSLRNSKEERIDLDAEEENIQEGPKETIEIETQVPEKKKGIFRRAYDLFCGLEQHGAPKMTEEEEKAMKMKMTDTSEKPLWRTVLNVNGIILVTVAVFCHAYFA
Nature of the assay: Assay for inhibitory effects on human SGLT1 activity (uptake of methyl-α-D-glucopyranoside in CS1-5-11D cells). It counts as cell-based. To be noted: CHO-K1 cells stably expressing human SGLT1 (CS1-5-11D); 1 mM α-MG uptake, 37° C., 1 hour. As to the method: Assay for Inhibitory Effects on Human SGLT1 Activity
1) Cloning and Construction of the Vector Expressing Human SGLT1
The cDNA library was prepared for PCR amplification by reverse transcription from total RNA deprived from human small intestine (Ori gene) using oligo-dT as a primer.
2) Establishment of Cell Line Stably Expressing Human SGLT1
The expression vector of human SGLT1 was digested by Sca I into a linear DNA. The linear DNA was transfected into CHO-K1 cells by means of lipofection (Effectene Transfection Reagent: QIAGEN). Neomycin resistant cell lines were selected by culture in the medium containing G418 (1 mg/mL, LIFE TECHNOLOGIES), and then the activity against the uptake of methyl-α-D-glucopyranoside was measured by the method described below. […] CS1-5-11D cells were cultured in the presence of G418 at 200 μg/mL.
3) Measurement of the Inhibitory Activity Against the Uptake of Methyl-α-D-glucopyranoside (α-MG)
CS1-5-11D cells were seeded into a 96-well culture plate at a density of 3×10^4 cells/well and cultured for 2 days, and were used in the uptake assay. A mixture of non-labeled (Sigma) and ^14C-labeled α-MG (Amersham Pharmcia Biotec) was added to the uptake buffer (pH 7.4: containing 140 mM sodium chloride, 2 mM potassium chloride, 1 mM calcium chloride, 1 mM magnesium chloride, 10 mM 2-[4-(2-hydroxyethyl)-1-piperazinyl]ethane sulfonic acid, and 5 mM tris(hydroxymethyl)aminomethane) at the final concentration of 1 mM. A test compound was dissolved in dimethyl sulfoxide, and then appropriately diluted with distilled water. The test compound solution was added to the uptake buffer containing 1 mM α-MG, and designated as a measurement buffer. For the control group, the measurement buffer without any test compound was prepared. For measuring the basal uptake, a basal uptake measurement buffer which contains 140 mM chorine chloride instead of sodium chloride was prepared. After removing the culture medium of CS1-5-11D cells, 180 μL of the pre-treatment buffer (the basal uptake buffer without α-MG) was added to each well and incubated at 37° C. for 10 minutes. After repeating the same treatment, the pre-treatment buffer was removed. To each well was added 75 μL of the measurement buffer or the basal uptake buffer was added and incubated at 37° C. for 1 hour. After removing the measurement buffer, cells were washed twice with 180 μL per well of the washing buffer (the basal uptake buffer containing 10 mM non-labeled α-MG). The cells were solubilized by 75 μL per well of 0.2 mol/L sodium hydroxide. The cell lysates were transferred into PicoPlates (Packard), and then added 150 μL of MicroScint-40 (Packard) and mixed. Radioactivity was measured by means of micro-scintillation counter TopCount (Packard). One hundred was set to the difference between the uptake in the control group and the basal uptake, and the uptake of methyl α-D-glucopyranoside a teach drug concentration were calculated.
By IC50 is commonly meant the concentration that gives 50% inhibition. Low values mean higher potency, high ones lower potency. `Cc1cc(OCCNCC(N)=O)ccc1Cc1c(O[C@@H]2O[C@H](CO)[C@@H](O)[C@H](O)[C@H]2O)n[nH]c1C(C)C` [Example 49, 4-({4-[2-(Carbamoylmethylamino)ethoxy]-2-methylphenyl}methyl)-3-(1-D-glucopyranosyloxy)-5-isopropyl-1H-pyrazole] registered an IC50 of 148 nM. Under `Cc1cc(OCCCNC(=O)NCCO)ccc1Cc1c(O[C@@H]2O[C@H](CO)[C@@H](O)[C@H](O)[C@H]2O)n[nH]c1C(C)C` [Example 30, 3-(β-D-Glucopyranosyloxy)-4-[(4-(3-[3-(2-hydroxyethyl)ureido]propoxy)-2-methylphenyl)methyl]-5-isopropyl-1H-pyrazole] stands 257 nM; under `Cc1cc(OCCCNC(=O)NC(C)(C)CO)ccc1Cc1c(O[C@@H]2O[C@H](CO)[C@@H](O)[C@H](O)[C@H]2O)n[nH]c1C(C)C` [Example 29, 3-(β-D-Glucopyranosyloxy)-4-{[4-(3-(3-[2-hydroxy-1,1-di(methyl)ethyl]ureido)propoxy)-2-methylphenyl]methyl}-5-isopropyl-1H-pyrazole], 19 nM; under `CC(C)c1[nH]nc(O[C@@H]2O[C@H](CO)[C@@H](O)[C@H](O)[C@H]2O)c1Cc1ccc(OCCCNC(C)(C)C(N)=O)cc1` [Example 48, 4-[(4-{3-[1-Carbamoyl-1-(methyl)ethylamino]propoxy}phenyl)methyl]-3-(β-D-glucopyranosyloxy)-5-isopropyl-1H-pyrazole], 54 nM. For `CC(C)c1[nH]nc(O[C@@H]2O[C@H](CO)[C@@H](O)[C@H](O)[C@H]2O)c1Cc1ccc(OCCCNS(N)(=O)=O)cc1` [Example 38, 3-(β-D-Glucopyranosyloxy)-5-isopropyl-4-({4-[3-(sulfamoylamino)propoxy]phenyl}methyl)-1H-pyrazole], it took 246 nM to reach half-maximal inhibition (IC50).

Regarding `Cc1cc(OCCNCCO)ccc1Cc1c(O[C@@H]2O[C@H](CO)[C@@H](O)[C@H](O)[C@H]2O)n[nH]c1C(C)C` [Example 63, 3-(β-D-Glucopyranosyloxy)-4-({4-[2-(2-hydroxyethylamino)ethoxy]-2-methylphenyl}methyl)-5-isopropyl-1H-pyrazole], the 50% inhibitory concentration (IC50) is 322 nM. For `Cc1cc(OCCNC(=O)NC(C)(CO)CO)ccc1Cc1c(O[C@@H]2O[C@H](CO)[C@@H](O)[C@H](O)[C@H]2O)n[nH]c1C(C)C` [Example 32, 3-(β-D-Glucopyranosyloxy)-4-{[4-(2-{3-[2-hydroxy-1-(hydroxymethyl)-1-(methyl)ethyl]ureido}ethoxy)-2-methylphenyl]methyl}-5-isopropyl-1H-pyrazole] the value was 113 nM. For `Cc1cc(OCCNC(=O)NC(C)(C)CO)ccc1Cc1c(O[C@@H]2O[C@H](CO)[C@@H](O)[C@H](O)[C@H]2O)n[nH]c1C(C)C` [Example 33, 3-(β-D-Glucopyranosyloxy)-4-{[4-(2-{3-[2-hydroxy-1,1-di(methyl)ethyl]ureido}ethoxy)-2-methylphenyl]methyl}-5-isopropyl-1H-pyrazole] the value was 65 nM; for `Cc1cc(OCCCN)ccc1Cc1c(O[C@@H]2O[C@H](CO)[C@@H](O)[C@H](O)[C@H]2O)n[nH]c1C(C)C` [Example 9, 4-{[4-(3-Aminopropoxy)-2-methylphenyl]methyl}-3-(β-D-glucopyranosyloxy)-5-isopropyl-1H-pyrazole], 42 nM; for `Cc1cc(OCCNC(CO)CO)ccc1Cc1c(O[C@@H]2O[C@H](CO)[C@@H](O)[C@H](O)[C@H]2O)n[nH]c1C(C)C` [Example 62, 3-(β-D-Glucopyranosyloxy)-4-[(4-{2-[2-hydroxy-1-(hydroxymethyl)ethylamino]ethoxy}-2-methylphenyl)methyl]-5-isopropyl-1H-pyrazole], 138 nM. Compound `CC(C)c1[nH]nc(O[C@@H]2O[C@H](CO)[C@@H](O)[C@H](O)[C@H]2O)c1Cc1ccc(OCCCNC(C)(C)CO)cc1` [Example 61, 3-(β-D-Glucopyranosyloxy)-4-[(4-(3-[2-hydroxy-1,1-di(methyl)ethylamino]propoxy)phenyl)methyl]-5-isopropyl-1H-pyrazole] yielded an IC50 of 199 nM. Under `Cc1cc(OCCCNC(=O)NC(C)(CO)CO)ccc1Cc1c(O[C@@H]2O[C@H](CO)[C@@H](O)[C@H](O)[C@H]2O)n[nH]c1C(C)C` [Example 28, 3-(β-D-Glucopyranosyloxy)-4-{[4-(3-{3-[2-hydroxy-1-(hydroxymethyl)-1-(methyl)ethyl]ureido}propoxy)-2-methylphenyl]methyl}-5-isopropyl-1H-pyrazole] stands 90 nM; under `CNC(=NC#N)NCCCOc1ccc(Cc2c(O[C@@H]3O[C@H](CO)[C@@H](O)[C@H](O)[C@H]3O)n[nH]c2C(C)C)cc1` [Example 36, 4-({4-[3-(2-Cyano-3-methylguanidino)propoxy]phenyl}methyl)-3-(β-D-glucopyranosyloxy)-5-isopropyl-1H-pyrazole], 383 nM. `CC(C)c1[nH]nc(O[C@@H]2O[C@H](CO)[C@@H](O)[C@H](O)[C@H]2O)c1Cc1ccc(OCCCNC(=O)NC(CO)CO)cc1` [Example 22, 3-(β-D-Glucopyranosyloxy)-4-{[4-(3-{3-[2-hydroxy-1-(hydroxymethyl)ethyl]ureido}propoxy)phenyl]methyl}-5-isopropyl-1H-pyrazole] registered an IC50 of 233 nM. Under `Cc1cc(OCCCNCCO)ccc1Cc1c(O[C@@H]2O[C@H](CO)[C@@H](O)[C@H](O)[C@H]2O)n[nH]c1C(C)C` [Example 58, 3-(β-D-Glucopyranosyloxy)-4-({4-[3-(2-hydroxyethylamino)propoxy]-2-methylphenyl}methyl)-5-isopropyl-1H-pyrazole] stands 100 nM; under `Cc1cc(OCCCNC(C)(C)C(N)=O)ccc1Cc1c(O[C@@H]2O[C@H](CO)[C@@H](O)[C@H](O)[C@H]2O)n[nH]c1C(C)C` [Example 51, 4-[(4-{3-[1-Carbamoyl-1-(methyl)ethylamino]propoxy}-2-methylphenyl)methyl]-3-(β-D-glucopyranosyloxy)-5-isopropyl-1H-pyrazole], 22 nM; under `Cc1cc(OCCCNC(C)(C)CO)ccc1Cc1c(O[C@@H]2O[C@H](CO)[C@@H](O)[C@H](O)[C@H]2O)n[nH]c1C(C)C` [Example 57, 3-(β-D-Glucopyranosyloxy)-4-[(4-(3-[2-hydroxy-1,1-di(methyl)ethylamino]propoxy)-2-methylphenyl)methyl]-5-isopropyl-1H-pyrazole], 43 nM. In turn, `Cc1cc(OCCNC(=O)NC(C)(C)C(N)=O)ccc1Cc1c(O[C@@H]2O[C@H](CO)[C@@H](O)[C@H](O)[C@H]2O)n[nH]c1C(C)C` [Example 31, 4-{[4-(2-{3-[1-Carbamoyl-1-(methyl)ethyl]ureido}ethoxy)-2-methylphenyl]methyl}-3-(β-D-glucopyranosyloxy)-5-isopropyl-1H-pyrazole] yielded an IC50 of 166 nM. For `Cc1cc(OCCNCCC(N)=O)ccc1Cc1c(O[C@@H]2O[C@H](CO)[C@@H](O)[C@H](O)[C@H]2O)n[nH]c1C(C)C` [Example 50] the value was 159 nM.
